The source of these data is patent US12036223B2, “Small molecule trail gene induction by normal and tumor cells as an anticancer therapy” (The Penn State Research Foundation, priority 2011, dated 2024).

Like-named read-outs stand apart in the source and are kept apart here.

In data set [1] the test system is TRAIL. The conditions noted are these: TIC10 100 mg/kg i.v. As for the experimental part:
(§1) Tissue analyses. […] Serum was then removed following centrifugation for 5 minutes.

For a further data set, the system named is cancer cell lines. Briefly: Colony formation assays, cancer cell lines. Format: cell-based, human. The conditions noted are these: 10 μM, 72 hr.
The subject of the next data set is HCT116 p53−/− cells. Description: Sub-G1 / cell cycle profile, HCT116 p53−/− cells. It is filed as cell-based, human. As to conditions: 5 μM, 72 hr. As for the experimental part: (§2) For all flow cytometry analyses, floating and adherent cells were analyzed on a Coulter-Beckman Elite Epics cytometer. For surface TRAIL experiments, adherent cells were harvested by brief trypsinization, fixed in 4% paraformaldehyde in PBS for 20 min, incubated with an anti-TRAIL antibody for 2 hr (Abeam), washed and incubated with anti-rabbit Alexafluor 488 (Invitrogen) for 30 min, and analyzed. Cells were gated on forward and side scatter to eliminate debris and dead cells from the analysis. Surface TRAIL data is expressed as median fluorescence intensity relative to that of control samples unless indicated as otherwise. For Sub-G1 and cell cycle profile experiments, all cells were pelleted and ethanol fixed followed by staining with propidium iodide (Sigma) in the presence of RNAse. Cell viability assays were carried out in 96-well black-walled clear-bottom plates using CellTiter-Glo® (Promega) according to the manufacturer's protocols. Imaging and quantification of these assays were performed on an IVIS imaging system (Xenogen).

For data set [2], the system named is MDA-MB-231 human breast cancer xenografts. Description: MDA-MB-231 subcutaneous xenograft. The conditions noted are these: single doses, TIC10 i.p., TRAIL i.v.
Description: (§4) For subcutaneous xenografts, 4-6 week old female, athymic nu/nu mice (Charles River Laboratories) were inoculated with 1×10^6 cells (2.5×10^6 for T98G) of indicated cell lines in each rear flank as a 200 μL suspension of 1:1 Matrigel (BD):PBS. All intraperitoneal and intravenous injections were given at a total volume of 200 μL. […] Tumors were monitored using digital calipers at indicated time points. All subcutaneous tumors were allowed to establish for 1-4 weeks post-injection until reaching a volume of ˜125 mm^3 before treatment initiation. Relief of tumor burden was monitored for 3 weeks following disappearance of the tumor and confirmed by visual inspection after euthanasia.
(§5) Error bars indicate standard deviation (s.d.) of replicates. *P<0.05 and **P<0.005 between the indicated condition and control unless otherwise indicated.
Data set [3] concerns surface TRAIL in a panel of cancer cells. Briefly: Surface TRAIL by flow cytometry in cancer cell lines. It is filed as cell-based, human. As to conditions: 72 hr, p53-independent. Background: Flow cytometry measures light scatter and fluorescence of single cells or particles in a stream.
The subject of a further data set is DLD-1 xenografts. Briefly: DLD-1 subcutaneous xenograft. The conditions noted are these: single dose, 1 week post-treatment, TIC10 i.p., TRAIL i.v.
Data set [4] in a line: Blood-brain barrier crossing. As to conditions: in vivo.
Data set [5] concerns TRAIL mRNA in HCT116 p53−/− cells. Briefly: RT-qPCR analysis of TRAIL mRNA levels. It is filed as cell-based, human. The conditions noted are these: 48 hr. On the technique in general: Real-time PCR tracks product formation cycle by cycle.
Description: Total RNA was extracted using RNeasy Minikit (Qiagen) by following the manufacturer's instructions. cDNA was generated using SuperScript II (Invitrogen) with 1 μg of RNA and oligodT. […] PCR amplification was performed with the Applied Biosystems 7900HT Fast Real-time Detection System. Samples were standardized to 10 ng/μl and twenty ng of cDNA per sample was then utilized as a template for real-time PCR using a SYBR Green Master Mix (Qiagen Corp, USA). Samples were normalized to GAPDH used under identical conditions. Quantitation used the 2ΔΔCt method of crossing thresholds described in Livak et al., 2001, Methods. […] Reactions were performed in 384 well optical plates in a 7900HT instrument (Applied Biosystems), with 10 ul reaction volumes. Data analysis used the ABI PRISM 7900 Sequence Detection System 2.2 software. To exclude the possibility of genomic DNA contamination, control PCR reactions with no cDNA template and No-RT control samples were also performed for each gene-specific primer set. Quadruplicates of each PCR reaction were performed and the resultant data was averaged.
Data set [6] deals with pAkt and pERK in HCT116 p53−/− cells. Description: Western blot analysis of pAkt and pERK. Format: cell-based, human. As to conditions: TIC10 2.5, 5, 10 μM, 72 hr, dose-dependent. As for the experimental part: Western blot analysis was conducted as described in Wang, W. et al., PNAS 103, 11003-11008, 2006, using NuPAGE 4-12% Bis-Tris and visualized using Supersignal West Femto (Thermo Scientific) and X-ray film. Nuclear and cytoplasmic extracts were prepared using a cytoplasmic lysis buffer (10 mM HEPES, 10 mM KCl, and 2 mM MgCl2, 1 mM DTT) followed by a nuclear lysis buffer (20 mM HEPES, 420 mM NaCl, 1.5 mM MgCl2, 250 μM EDTA, 25% glycerol). For all lysis buffers, fresh protease inhibitor (Roche) and 1 mM sodium orthovanadate was added immediately prior to use.
TIC10-induced changes in regulators of Foxo3a such as IKK, Akt, and ERK were determined.
FIG. 61 is a graph showing time course of protein expression levels of TIC10-induced effects determined by densitometry of Western blots from replicate experiments as in FIG. 60 (n=3). Data is express relative to the control sample for each time point and normalized to Ran. TRAIL was quantified by flow cytometry as a parallel experiment (n=3).
(Immunoblotting shows a protein as a band on a membrane.)

The test system of the next data set is HCT116 cells. Description: Cell viability in HCT116 cells after 1 hr pre-incubation of agent at indicated temperatures. It is filed as cell-based, human. As to conditions: TIC10 5 μM, 1 hr pre-incubation at indicated temperatures, 72 hr.
In data set [7] the test system is freshly resected colon tumor cells from a human patient. The conditions noted are these: TIC10 0.6-20 μM. As for the experimental part:
as §2
(§3) Error bars indicate s.d. of replicates.

The next data set concerns HCT116 xenograft. Description: HCT116 xenograft, single oral dose titration. Format: in vivo, athymic nu/nu mice. The conditions noted are these: 25 mg/kg.
The test system of data set [8] is freshly isolated GBM cells. The conditions noted are these: temozolomide-resistant, previously irradiated, 72 hr. The protocol:
as §2

Data set [9] relates to HFF cells. The conditions noted are these: 5 μM, 72 hr. As for the experimental part: as §2
A further data set relates to GBM cell lines. Briefly: Cell viability assays of GBM cell lines. Format: cell-based, human. The conditions noted are these: 72 hr post-treatment, p53-independent.
Data set [10] in a line: Serum chemistry of C57/B6 mice treated weekly for 4 weeks.
Description: For CBC/differential and serum chemistry assays, 1 mL of blood was harvested from anesthetized mice by terminal cardiac puncture of the left ventricle. For serum chemistry, 500 μL, was placed into a microfuge tube and allowed to clot for 30 minutes at room temperature followed by centrifugation. Serum was removed, centrifuged again to remove any further clots, and serum was submitted for analysis. For CBC/differentials, 500 μL of blood was collected into EDTA tubes and analyzed.
Data set [11] in a line: Body weight and liver histology of treated mice. The conditions noted are these: TIC10 100 mg/kg i.p. single dose; 25 mg/kg oral weekly for 4 weeks.
Description: Tissue analyses. Mice were humanely sacrificed at indicated time points and excised normal tissue or tumors were fixed in 4% paraformaldehyde/PBS overnight at 4° C. If plasma samples were desired, 500 μL of blood was collected by terminal cardiac puncture under anesthesia in EDTA-Vacutainer tubes (BD). Serum samples were collected in a similar fashion but in microcentrifuge tubes followed by a 30 minute incubation at room temperature to allow for clotting. Serum was then removed following centrifugation for 5 minutes. Paraffin-embedded blocks, serial section slides, and hematoxylin and eosin staining were prepared according to standard procedures. TUNEL staining was performed using the ApopTag® Peroxidase In Situ Apoptosis Detection Kit (Millipore). For IHC analysis, slides were dewaxed in xylene and hydrated in a decreasing gradient of ethanol. Antigen retrieval was carried out by boiling in 10 mM citric acid (pH 6.0) for 6 min. Samples were blocked with streptavidin and biotin blocking solutions and goat serum (Vector Laboratories). Primary antibodies were incubated overnight at 4° C. in a humidity chamber. Incubation with biotinylated secondary antibody and DAB deposition was carried out according the manufacturer's protocol (Vector Laboratories DAB Substrate Kit for Peroxidase). […] Images were recorded on an Axioskop microscope using QCapture software (QImaging).
Data set [12] deals with intracecal HCT116 p53−/− tumors. As to conditions: multi-dose regimen, once a week. As for the experimental part:
Intracecal implantation was performed as described in Cespedes, M. V., et al., Am J Pathol, 2007, 170(3): p. 1077-1085.
FIG. 37 is a graph showing percent of cohorts with implanted with intracecal HCT116 p53^−/− tumors with evident tumors at the primary and distal sites at endpoint (n=5).
FIG. 38 is a graph showing body weight of mice at endpoint. Error bars indicate s.d. of replicates.

Data set [13] relates to human TRAIL gene promoter in HCT116 Bax−/− cells. The conditions noted are these: first 504 base pairs of the TRAIL promoter.
Description: Bioluminescent high-throughput screening using the NCI diversity set II was carried out in HCT116 Bax^−/− cells that were stably cotransfected to express a firefly luciferase construct under transcriptional control of the first 504 base pairs of the TRAIL promoter upstream of the start of transcription of the human TRAIL gene. Compounds were tested at a working concentration of 20 nM, 200 nM, 500 nM, and 1 μM with bioluminescent assessment of transcriptional activity at 12, 24, 36, and 48 hours post-treatment.
A short description of data set [14]: Pharmacokinetic analysis of TIC10 in plasma.
Description: HPLC analysis was performed by absorbance detection at 239 nm on an Agilent 1200 series system (Agilent, Santa Clara, CA) using an Eclipse XDB-C18 column (Agilent) and a 100 μL injection loop. Isocratic elution at 1 mL/minute was carried out in 0.1% trifluoroacetic acid in dH2O. An acetonitrile (ACN) gradient was carried out for elution as 15-20% ACN at 0-5 minutes, 20-23% for 5-12 minutes, 25% for 12-18 minutes. […] For all plasma samples, blood was obtained by terminal cardiac puncture of the left ventricle and collected into EDTA tubes (BD). Samples were centrifuged at 500 g for 10 minutes. Plasma was deproteinated by the adding 30 μL of perchloric acid to 100 μL of samples, vortexed for 15 seconds, centrifuged for 2 minutes, and the supernatant was immediately injected into the HPLC. AUC was normalized to an internal serum peak with a retention time of 8.1 minutes. AUC data versus time was fit with a two-compartment open model with first order elimination from central compartment using the equation AUC=Ae^−αt+Be^−βt where t=time and A and B are the extrapolated concentrations at the initiation of the two phases (distribution and elimination). Half-lives calculated as t1/2α=0.693/α and t1/2β=0.693/β. Other equations used for calculation include CL=dose/AUC0-∞ and Vd=dose/(AUC0-∞Xβ).
Error bars represent standard error mean of replicates.
The subject of data set [15] is subcutaneous T98G xenografts. Briefly: T98G subcutaneous xenograft. It is filed as in vivo, athymic nu/nu mice. As to conditions: single oral dose, 30 mg/kg. The protocol: TIC10 was tested in preclinical models of GBM as a monoagent and in combination with bevacizumab.
Data set [16] concerns SF767 intracranial tumors. Briefly: Overall survival of mice harboring SF767 intracranial tumors. Format: in vivo, athymic nude mice. As to conditions: for Median Survival: TIC10 25 mg/kg oral, bevacizumab 10 mg/kg i.v. The protocol: For intracranial xenografts, anesthetized athymic nude mice were implanted with 2×10^5 SF767 cells in a 25 μL suspension of serum- and antibiotic-free RPMI. The site of injection was a burr hole created 1 mm lateral to the midline of the skull and 1 mm anterior to the coronal suture. The injection was gradually administered over 5 minutes with a Hamilton syringe and the burr hole was sealed using bone wax. Tumor take was assessed by bioluminescent imaging 2 weeks following implantation. Bioluminescent imaging of tumors was carried out on an IVIS imaging system as described in Wang et al., 2003, PNAS 100:15095-15100.

Data set [17] concerns TRAIL. The protocol:
as §1
ELISA for TRAIL was carried out using the Quantikine® TRAIL/TNFSF10 kit according to the manufacturer's protocol (DTRL00, R&D systems, Minneapolis, MN). […] Absorbances were measured with a DTX 880 plate reader (Beckman Coulter).
as §3

The subject of another data set is SW480 xenograft. Briefly: SW480 subcutaneous xenograft. Format: in vivo, athymic nu/nu mice. The conditions noted are these: single dose 30 mg/kg, intraperitoneal or oral delivery.
Data set [18] concerns HFF cells. Briefly: Colony formation parallel experiment, HFF cells.
Description: Indicated cell lines were plated at 500 cells per well and treated the following day in fresh complete media after adherence. At 3 days post-treatment, the media was replaced with drug-free media and cells were propagated for 10 days with fresh media given once every 3 days. At the end of the 10 day period, cells were washed in PBS, fixed with methanol, and stained with Coomassie blue, rinsed, and dried for quantification.
Error bars indicate standard deviation (s.d.) of replicates. […] Error bars indicate standard deviation (s.d.) of replicates.
The test system of data set [19] is Eμ-Myc transgenic mice that spontaneously develop lymphoma. The conditions noted are these: weekly oral TIC10 25 mg/kg during weeks 9-12 of age. As for the experimental part:
Near-infrared imaging of mice was carried out on a Pearl Impulse imaging system (LI-COR) following tail-vein injection of AngioSense® 680 (VisEn Medical, Woburn, MA) according to the manufacturer's protocols. 6 week old Eμ-myc mice were obtained from The Jackson Laboratory (B6.Cg-Tg(IghMyc)22Bri/J).
P value determined by log-rank test. For relative tumor volume plots, tumor size is expressed relative to the tumor size on day 0, which is defined as the day of treatment initiation.

The subject of another data set is HCT116 p53−/− xenograft. Description: HCT116 p53−/− subcutaneous xenograft. As to conditions: 3 doses on day 0, 3 and 6, TIC10 i.p. It is filed as in vivo, athymic nu/nu mice.
The conditions of data set [20]: TRAIL protein / recombinant TRAIL, cited from earlier work.
Setting [21] is: serum, TIC10 25 mg/kg oral weekly for 4 weeks.
Where [22] appears, read: 25 mg/kg intravenous, plasma, two-compartment model.
Setting [23] is: female, C57/B6, mouse, in vivo, iv, 25 mg/kg.
Where [24] appears, read: single dose at 2 weeks post-implantation.
The mark [25] stands for this setting: tumor-free mice, TIC10 100 mg/kg i.v.

Description for DLD-1 xenografts: as §4
Description for GBM cell lines: For all flow cytometry analyses, floating and adherent cells were analyzed on a Coulter-Beckman Elite Epics cytometer. […] Cells were gated on forward and side scatter to eliminate debris and dead cells from the analysis. […] Cell viability assays were carried out in 96-well black-walled clear-bottom plates using CellTiter-Glo® (Promega) according to the manufacturer's protocols. Imaging and quantification of these assays were performed on an IVIS imaging system (Xenogen).
Description for HCT116 p53−/− xenograft: as §4, §5
Description for HCT116 xenograft: as §4, §5
Description for SW480 xenograft: as §4

`Cc1ccccc1CN1C(=O)C2=C(CCN(Cc3ccccc3)C2)N2CCN=C12` [TIC10]: in the data set on TRAIL [1], the “TRAIL protein in normal tissues (IHC)” value was “upregulated at the protein level in the brain, kidney, and spleen”; the “toxicity in normal tissues by histology and TUNEL staining” value was “without apparent toxicity”. Also, the clonogenic survival result in the data set on cancer cell lines is recorded as “decreased the clonogenic survival”. For the same compound, the “sub-G1 DNA content” value in the data set with HCT116 p53−/− cells is listed as “induced sub-G1 DNA content”. Besides, in data set [2], the effect on tumor entry was “regression”. In addition, the “TRAIL protein localized to the cell surface” value in [3] was “dose-dependent increase”. The effect on tumor result in the data set on DLD-1 xenografts was “tumor stasis”. Besides, the blood-brain barrier crossing entry in [4] was “crosses the blood-brain barrier”. Also, the “TRAIL mRNA levels” value in [5] is “dose-dependent increase”. For the same compound, in data set [6], the “pAkt and pERK levels” value is “abolished”. In addition, the “thermal stability of cytotoxic activity” value in the data set with HCT116 cells is on record as “thermally stable”. Moreover, in [7], the “cytotoxicity in primary colon cancer cells” value is “potent cytotoxic effects”. Besides, the effect on tumor entry in the data set with HCT116 xenograft is given as “sustained anti-tumor efficacy”. In addition, the “cytotoxicity in freshly isolated GBM cells” value in [8] was “cytotoxic effects”. Also, the “cell cycle profile of normal fibroblasts” value in the data set on HFF cells [9] was “without altering the cell cycle profiles”. In the data set with GBM cell lines, the GI50 entry was “low micromolar range”. Also, the “changes in a panel of serum chemistry markers” value in data set [10] (oral TIC10 25 mg/kg weekly for 4 weeks, immuno-competent mice) is recorded as “did not cause any changes”. Besides, in data set [10] (setting [21]), the Albumin came to 2.9 g/dL, the Alkaline phosphate was determined as 112 ± 12 U/L, the Blood urea nitrogen was 33.75 ± 7.3 mg/dL and the Chloride is reported as 104 mM. For the same compound, in data set [10] (setting [21]), the Creatinine is 0.15 ± .06 mg/dL, the Lactate dehyrogenase amounted to 287.5 ± 125 U/L, the Potassium came to 7.325 ± 3.2 mM and the Sodium is reported as 154.5 ± 5.2 mM. Also, in [10] (setting [21]), the “Total Protein” value was 4.97 ± .61 g/dL and the Total bilirubin stood at 2.725 ± 2.4 mg/dL. Moreover, the “effects on body weight or liver histology” value in data set [11] is reported as “no adverse effects on body weight or liver histology”. In data set [12], the “tolerability / body weight at endpoint” value is “well tolerated”. Besides, the “TRAIL promoter luciferase reporter activity” value in [13] is on record as “induced TRAIL promoter-dependent transcriptional activity”. In data set [14] (25 mg/kg intravenous, plasma), this compound showed a t1/2α of 2.82 min and a t1/2β of 385 min. For the same compound, in [14] (setting [22]), the α is 14.9 h⁻¹ and the β worked out at 0.108 h⁻¹. In addition, in [14] (setting [23]), the AUC(0-inf) (commonly the area under the concentration-time curve extrapolated to infinity) came out at 63.9 µM·h; the Cmax – broadly, the maximum level reached in the sampled fluid or tissue – was found to be 44.2 µM; the Tmax – broadly, the time at which the peak concentration occurs – amounted to 1.2 min; the Vd (as a rule, the apparent volume that relates the amount in the body to the concentration in plasma or blood) was determined as 9.39 L/kg. Further, the clearance (commonly the volume of plasma or blood freed of the substance per unit of time) in [14] (setting [23]) was 1.01 L/h/kg. The effect on tumor result in data set [15] was “sustained regression”. Further, the “Median Survival” value in data set [16] (setting [24]) was 74 days. The “change in overall survival” value in data set [16] (single dose, intracranial xenograft of human GBM) is given as “doubled”. In data set [16] (versus control cohort, single dose at 2 weeks post-implantation), the “ΔMedian Survival” value came out at 46 days. In addition, the “duration of sustained serum levels of secreted TRAIL” value with TRAIL [17] (after a single dose of TIC10) was in the range of 3 to 4 days. In addition, in the data set with TRAIL [17] (setting [25]), the “duration of elevated serum levels of TRAIL” value is given as “greater than 72 hours” and the “time at which serum TRAIL induced by TIC10 was detected following administration” value worked out at 2 h. For the same compound, the effect on tumor entry with SW480 xenograft was “sustained regression”. Also, in the data set with HFF cells [18], the “effect on normal fibroblasts in colony formation experiment” value is recorded as “sparing normal fibroblasts”. In data set [19], the prolongation of survival is reported as 4 weeks. Besides, the effect on tumor result with HCT116 p53−/− xenograft is “tumor regression”.

For bevacizumab [reference compound], in data set [16] (setting [24]), the “Median Survival” value stood at 70 days.

On to “TRAIL: Purified, recombinant TRAIL (TNF-related apoptosis-inducing ligand; Apo2L)”, for which the effect on tumor result (in data set [2]; in the data set on DLD-1 xenografts) was “progressed” in each case. Besides, the results for the serum half-life in data set [20] and in data set [20] (listed as recombinant TRAIL) were 20 to 30 min and ~30 min, respectively.
